Data reported in publication doi:10.1101/2021.12.13.472388v3 (biorxiv, 2022).

What was measured:
[1] = target: BRD4-BDI (Homo sapiens, UniProt O60885); assay: HTRF peptide displacement; type: binding; details: 6 h, room temperature
[2] = system: NB4; assay: cells; design: species or system MOLM-14, CCRF-CEM, K-562; details: Homo sapiens, NB-4, 72 h, read-out: Cells viability EC50 NB4 (µM)
[3] = target: T1, TRIM33 (Homo sapiens, UniProt Q9UPN9); assay: BROMOscan competition binding; details: single dose 1 μM; unreliable (may be per cent of control, direction unclear)
T1 sequence (Q9UPN9 882-1087 limits assumed): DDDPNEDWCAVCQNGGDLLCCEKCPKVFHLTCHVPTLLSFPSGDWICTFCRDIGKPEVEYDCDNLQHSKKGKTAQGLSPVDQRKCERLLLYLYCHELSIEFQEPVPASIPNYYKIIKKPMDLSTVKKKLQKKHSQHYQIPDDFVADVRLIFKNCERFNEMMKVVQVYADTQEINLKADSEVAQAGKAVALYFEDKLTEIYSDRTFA

[4] = system: K-562; assay: cells; design: species or system MOLM-14, CCRF-CEM, NB4; details: Homo sapiens, K562, 72 h, read-out: Cells viability EC50 K-562 (µM)
[5] = target: CECR2 (Homo sapiens, UniProt Q9BXF3); assay: BROMOscan competition binding; details: single dose 1 μM; unreliable (may be per cent of control, direction unclear)

Row | Compound | IC50 [1] [µM] | other results
1 | CC(=O)N1CCc2c(sc3nc(SCC(=O)Nc4cc(Cl)ccc4C)n(Cc4ccco4)c(=O)c23)C1 [compound 1] | 4 ± 0.5 | 
2 | Cc1cc(F)ccc1NS(=O)(=O)c1cc(-c2c(C)noc2C)ccc1C [compound 4] | 7.4 ± 0.5 | 
3 | COc1cc(C(=O)C(=Cc2ccncc2)c2nc3ccccc3o2)cc(OC)c1OC [compound 5] | 4.3 ± 0.2 | 
4 | O=C1c2ccc(Oc3cccc(Oc4ccc5c(c4)C(=O)N(c4ccc(O)cc4)C5=O)c3)cc2C(=O)N1c1ccc(O)cc1 [compound 7] | 1.1 ± 0.1 | 
5 | CC(=O)N1CCc2c(sc3nc(SCC(=O)Nc4cccnc4C)n(Cc4ccco4)c(=O)c23)C1 [compound 34, 2-((7-Acetyl-3-(furan-2-ylmethyl)-4-oxo-3,4,5,6,7,8-hexahydropyrido[4’,3’:4,5]thieno[2,3-d]pyrimidin-2-yl)thio)-N-(2-methylpyridin-3-yl)acetamide] | 1.3 | EC50 [2]: > 25 µM; % inhibition at 1 μM [3]: 52%; EC50 [4]: > 25 µM; % inhibition at 1 μM [5]: 54%

Now from value to compound, other results behind:

Row | IC50 [1] [µM] | Compound | other results
6 | 11 ± 0.9 | Cc1ccc(-c2c(C)noc2C)cc1S(=O)(=O)Nc1cccc(C)c1C [compound 2] | 
7 | 9.3 ± 0.8 | CCc1cccc(C)c1NS(=O)(=O)c1cc(-c2c(C)noc2C)ccc1C [compound 3] | 
